Reference: patent US5565478A (The United States of America as represented by the …, priority 1994, dated 1996)
Read-outs that look alike come from different tables or passages of the source.

Legend:
[1] = test system: voltage-gated L-type calcium channels in vascular smooth muscle cells; conditions: vascular smooth muscle cells under patch clamp; cited from earlier work
[2] = test system: receptor-mediated calcium entry (RMCE) in platelets, endothelial cells and neutrophils; conditions: cited from earlier work
[3] = test system: calcium levels in cells; conditions: cited from earlier work
[4] = test system: microtubule; conditions: cited from earlier work
[5] = test system: human tumors; conditions: clinical trials; cited from earlier work
[6] = cited from earlier work
[7] = in vitro; cited from earlier work
[8] = test system: A2780-CP70 cells (cisplatin-resistant); test: Colony growth inhibition, 24 hr exposure; type: cell-based; conditions: Homo sapiens, colonies counted after 5 days
Protocol: (§1) A2780-CP70 are a selected subline of A2780 which are stably resistant to cisplatin in the absence of continuous exposure. These cells were obtained from Robert Ozols, MD at the Fox Chase Cancer Center, Philadelphia, Pa., USA. These cells were cultured as described above.
(§2) Cells (500) were plated in 6-well plates and allowed to grow overnight. […] Controls were conducted by adding DMSO vehicle in complete media. […] After 5 days of incubation, the cells were washed once with PBS and then stained with methylene blue in 40% methanol for 20 min. The wells were rinsed gently with water and allowed to air dry. Colonies were counted by hand.

[9] = clinical; conditions: human, plasma, 100 mg/m^2
[10] = test system: phosphorylation events which are associated with receptor activation; conditions: cited from earlier work
[11] = test system: A2780 human ovarian cancer cells; test: Colony growth inhibition, 24 hr exposure; type: cell-based; conditions: colonies counted after 5 days
Protocol: (§3) A2780 human ovarian cancer cells are available from the ATCC. The cells were cultured in RPMI 1640 with 10% FCS under standard conditions. See the ATCC catalog. The culture media contained penicillin and streptomycin and in some instances, insulin.
as §2

[12] = test system: A2780-CP70 cells; test: Colony assay, paclitaxel followed by compound 1; type: cell-based, human; conditions: paclitaxel (0.003 μM) 24 hr, then compound 1 (0 to 10 μM); cisplatin-resistant A2780-CP70
Protocol: as §1
The cells were again washed with PBS and treated with compound 1 (0 to 10 μM) for 24 hr, washed again with PBS and incubated for 5 days in drug-free media. The resulting cells were fixed, stained and the colonies were counted. Data are presented in FIGS. 4 and 5 as a percentage of control growth (DMSO treatment only).

[13] = Toxicity of compound 1 in patients
[14] = test system: A2780 cells; test: Colony assay, compound 1 followed by paclitaxel; type: cell-based, human; conditions: compound 1 (0, 1 and 5 μM) 24 hr, then compound 3 (paclitaxel, 0 to 0.01 μM) 24 hr
Protocol: as §3
(§4) Cells were incubated overnight in serum-containing medium, then washed once and treated with compound 1 (0, 1 and 5 μM). […] The resulting cells were washed once with PBS, treated with serum-containing media and incubated for 5 days. The cells were then fixed and stained with methylene blue in 40% methanol and the colonies were counted. FIGS. 2 and 3 show the results for the A2780 and A2780-CP70 cells, respectively. Data are presented as a percent of control (DMSO vehicle) growth.

[15] = humans, 100 mg/m^2/d; cited from earlier work
[16] = both in vitro and in vivo; cited from earlier work
[17] = test system: nonvoltage-gated and voltage-gated calcium channels; conditions: cited from earlier work
[18] = test system: A2780 cells; test: Colony assay, compound 1 in combination with carboplatin; type: cell-based, human
Protocol: as §3
(§5) Cells were incubated overnight in serum-containing medium, then washed once and treated with compound 1 (5 μM). After 24 hr, the cells were washed once with PBS and then treated with carboplatin (1 to ~200 μM) for an additional 24 hr. The resulting cells were washed once with PBS, treated with serum-containing media and incubated for 5 days. The cells were then fixed and stained with methylene blue in 40% methanol and the colonies were counted. […] Data are presented as a percent of control (DMSO vehicle) growth.

[19] = test system: A2780-CP70 cells; test: Colony assay, compound 1 followed by paclitaxel; type: cell-based, human; conditions: compound 1 (0, 1 and 5 μM) 24 hr, then compound 3 (paclitaxel, 0 to 0.01 μM) 24 hr
Protocol: as §1, §4

[20] = test system: A2780 cells; test: Monolayer assay, compound 1 followed by paclitaxel; type: cell-based, human; conditions: compound 1 (5 μM) 24 hr, then paclitaxel (0 to 0.007 μM) 24 hr
Protocol: as §3
(§6) For each of the cell types, 50,000 cells were plated per well in 24-well tissue culture plates. One mL of medium was added to each well and the cells were incubated overnight at 37° C. The media was carefully aspirated away and media (1 mL) containing compound 1 (5 μM) or DMSO vehicle control was added to each well. After incubating the cells for 24 hr at 37° C., the media from each well was carefully aspirated away and each well was washed twice with serum-free media. […] After the incubation, the media was aspirated away and each well was washed twice with serum-free media. Serum-containing media was then added to each well and all plates were incubated for 4 days at 37° C. At the end of 4 days, the media was aspirated off and wells were fixed and stained with crystal violet in methanol. The wells were air dried and eluted with sodium citrate and ethanol. The optical density (OD) was determined for each of the well eluates at 540 nm. The percent relative growth was calculated by dividing the mean OD of identically treated wells by the OD of the control and multiplying by 100.

[21] = test system: production of arachidonic acid; conditions: cited from earlier work
[22] = test system: MDA 231 human breast cancer cells; test: Monolayer assay, compound 1 followed by paclitaxel; type: cell-based; conditions: compound 1 (5 μM) 24 hr, then paclitaxel (0 to 0.007 μM) 24 hr; MDA 231 monolayer
Protocol: MDA-231 hormone-resistant human breast cancer cells from ATCC were cultured in DMEM with 10% FCS and penicillin/streptomycin, under standard conditions.
as §6

[23] = test system: A2780-CP70 cells; test: Colony assay, compound 1 in combination with carboplatin; type: cell-based, human
Protocol: as §1, §5

[24] = 100 mg/m^2/day
[25] = Stability of compound 1 in PEG-400 solution; type: physicochemical; conditions: temperatures of up to 50° C.
Protocol: Compound 1 (NSC 609974) is available from the National Cancer Institute as a white powder. Preferably, it is dispensed as a 100 mg/mL solution in PEG-400. Compound 1 in PEG-400 solution is stable for at least 3 months at temperatures of up to 50° C. It is administered as a measured liquid dose daily for 8 days or more. It is recommended that patients take nothing by mouth for 3 hours prior to and 1 hour after taking the compound 1.

[26] = at least; fixed dose 100 mg/m^2/d, by the 8th day of administration; read-out: plasma levels in humans; cited from earlier work
[27] = test system: A2780-CP70 cells; test: Monolayer assay, compound 1 followed by paclitaxel; type: cell-based, human; conditions: compound 1 (5 μM) 24 hr, then paclitaxel (0 to 0.007 μM) 24 hr
Protocol: as §1, §6

[28] = test system: paclitaxel-induced neutropenia; conditions: cited from earlier work
[29] = carboplatin first, then compound 1
[30] = compound 1 (5 μM) 24 hr, then carboplatin (1 to ~200 μM) 24 hr

COc1ccc(CCCOC(Cn2ccnc2)c2ccc(OC)cc2)cc1 (stereo not drawn) [Compound 2]
block of voltage-gated L-type calcium channels [1]: blocks voltage-gated L-type calcium channels
inhibition of RMCE [2]: inhibits RMCE

CCC(C)n1ncn(-c2ccc(N3CCN(c4ccc(OCC5COC(Cn6cncn6)(c6ccc(Cl)cc6Cl)O5)cc4)CC3)cc2)c1=O (stereo not drawn) [itraconazole]
effect on calcium levels in cells [3]: effect calcium levels in cells

CC(=O)O[C@H]1C(=O)[C@@]2(C)[C@H]([C@H](OC(=O)c3ccccc3)[C@]3(O)C[C@H](OC(=O)[C@H](O)[C@@H](NC(=O)c4ccccc4)c4ccccc4)C(C)=C1C3(C)C)[C@]1(OC(C)=O)CO[C@@H]1C[C@@H]2O [Compound 3, Paclitaxel]
effect on microtubule polymerization [4]: promotion of microtubule polymerization
efficacy in human tumors [5]: demonstrated efficacy in several human tumors
dose at which dose limiting toxicity of peripheral neuropathy has been seen ([6]; paclitaxel infusion over 3-24 hours every 21 days): above 300 mg/m^2
toxicities of paclitaxel ([6]; patients): nausea, emesis, diarrhea, neutropenia, thrombocytopenia, anemia, hair loss, myalgia, cardiac conduction abnormalities, hypersensitivity reactions, peripheral and autonomic neuropathy, mucositis

CC(=O)N1CCN(c2ccc(OCC3COC(Cn4ccnc4)(c4ccc(Cl)cc4Cl)O3)cc2)CC1 (stereo not drawn) [ketoconazole]
effect on activity of paclitaxel [7]: augment the activity of paclitaxel
effect on calcium levels in cells [3]: effect calcium levels in cells

NC(=O)c1nnn(Cc2cc(Cl)c(C(=O)c3ccc(Cl)cc3)c(Cl)c2)c1N [Compound 1, 5-amino-1-(4-(4-chlorobenzoyl)-3,5-dichlorobenzyl)-1,2,3-triazole-4-carboxamide]
IC50 [8]: 9.5 µM
concentration at 192 h [9]: 1 to 5 µM
effect on phosphorylation events [10]: inhibits phosphorylation events
IC50 [11]: 3 µM
combination effect on growth [12]: additive effect
common low-grade toxicities ([13]; human, in vivo): nausea and emesis
uncommon toxicities ([13]; human, in vivo): mood changes (low-grade), peripheral neuropathy (mild to moderate) and neutropenia
toxicity at dosing level ([13]; patients, 100 mg/m^2/day): no significant toxicity
combination effect on growth [14]: supra-additive effect
toxicity at fixed dose [15]: no significant toxicity
single agent activity [16]: antiproliferative, anti-invasive, and anti-metastatic properties
inhibition of calcium uptake [17]: inhibitor of calcium uptake
combination effect on growth, reversed sequence [18, 29]: sub-additive effect
combination effect on growth [18, 30]: sub-additive effect
combination effect on growth [19]: supra-additive effect
combination effect on percent relative growth [20]: supra-additive effect
effect on production of arachidonic acid [21]: alter production of arachidonic acid
combination effect on percent relative growth [22]: supra-additive effect
combination effect on growth, reversed sequence [23, 29]: sub-additive effect
combination effect on growth [23, 30]: sub-additive effect
usual plasma levels, plateau [24]: 3 to 4 µg/mL
concentration ([24]; read-out: usual plasma levels, plateau (molar)): 5 to 10 µM
stability in PEG-400 solution [25]: at least 3 months
concentration [26]: 1 to 5 µM
combination effect on percent relative growth [27]: supra-additive effect

Clc1ccc(COC(Cn2ccnc2)c2ccc(Cl)cc2Cl)c(Cl)c1 (stereo not drawn) [miconazole]
effect on calcium levels in cells [3]: effect calcium levels in cells

Clc1ccc(COC(Cn2ccnc2)c2ccc(Cl)cc2Cl)cc1 (stereo not drawn) [econazole]
effect on calcium levels in cells [3]: effect calcium levels in cells

OC(Cn1cncn1)(Cn1cncn1)c1ccc(F)cc1F [fluconazole]
effect on calcium levels in cells [3]: effect calcium levels in cells

B1: G-CSF: cytokine which blunts paclitaxel-induced neutropenia; recombinant cytokine from Amgen (protein, UniProt P09919 31-207, looked up)
Granulocyte …: TPLGPASSLPQSFLLKCLEQVRKIQGDGAALQEKLVSECATYKLCHPEELVLLGHSLGIPWAPLSSCPSQALQLAGCLSQLHSGLFLYQGLLQALEGISPELGPTLDTLQLDVADFATTIWQQMEELGMAPALQPTQGAMPAFASAFQRRAGGVLVASHLQSFLEVSYRVLRHLAQP
modifications: filgrastim
notes: recombinant cytokine from Amgen
maintenance of paclitaxel dose ([28]; G-CSF escalation up to 30 μg/kg/d, paclitaxel alone or with compound 1): associated with maintenance of the dose of paclitaxel
effect on paclitaxel-induced neutropenia ([28]; in vivo): blunts paclitaxel-induced neutropenia
